Results on 3 substances are retold here after patent publication US5567676A, “Glycopeptide antibiotics” (Gruppo Lepetit S.p.A, priority 1986, dated 1996).

For test [1], the system named is different microorganism cultures. The test is described as follows: In vitro antibacterial activity, standard dilution tests (microorganisms of Table I). In kind it is cell-based.
The test system of another test is S. pyogenes C 203 (L 49). The experiment in a line: Experimental septicemia in the mice. Format: in vivo, CD-1 mice. As to conditions: mice infected i.p. with S. pyogenes C 203 (L 49); compound s.c. immediately after infection; survival on the 7th day, Spearman and Karber. How it is done:
The antimicrobial activity of the compounds of the invention is confirmed also in experimental septicemia in the mice. Control and treatment groups may include ten CD-1 mice (Charles River) weighing 18-22 g. They are infected intraperitoneally with 0.5 ml of bacterial suspension prepared by diluting an overnight culture of S. pyogenes C 203 (L 49) with sterile peptonized saline. Inocula are adjusted so that untreated animals die of septicemia within 48 h. The compounds to be tested are administered subcutaneously immediately after infection. On the 7th day, the ED50 in mg/kg is calculated by the method of Spearman and Karber (D. J. Finney "Statistical Methods in Biological Assay" Griffin, page 524, 1952) from the percentage of surviving animals at each dose.

Test [2] has as its system Ureaplasma urealyticum L1479 (clinical isolate). The test is described as follows: MIC, broth dilution test. Format: cell-based. As to conditions: PPLO broth with supplements, 24 h, about 10^4 color-changing units/ml, 37° C. On the technique in general: Dilution methods test growth across graded concentrations, often in twofold steps.
For test [3], the system named is Pseudomonas aeruginosa L4 ATCC10145. The test is described as follows: MIC, broth dilution test. The conditions noted are these: Isosensitest broth, 24 h, 37° C. In kind it is cell-based.
Test [4] relates to Proteus vulgaris L79 X19H ATCC881. The experiment in a line: MIC, broth dilution test. In kind it is cell-based. The conditions noted are these: Isosensitest broth, 24 h, 37° C.
Test [5] relates to Staph. haemolyticus L602 (clinical isolate). The experiment in a line: MIC, broth dilution test. Format: cell-based. As to conditions: Isosensitest broth, 24 h, 37° C.
Test [6] relates to Strep. faecalis L149 ATCC 7080. The experiment in a line: MIC, broth dilution test. Format: cell-based. The conditions noted are these: Isosensitest broth, 24 h, 37° C.
Test [7] has as its system Clostridium perfringens L290 ISS 30543. The conditions noted are these: AC broth, 24 h, anaerobic atmosphere, 37° C.
Another test has as its system Staph. aureus L165. The experiment in a line: MIC, broth dilution test. In kind it is cell-based. As to conditions: Isosensitest broth, 24 h.
In test [8] the test system is Strep. pneumoniae L44 UC41. The test is described as follows: MIC, broth dilution test. Format: cell-based. As to conditions: Todd-Hewitt broth, 24 h, 37° C.
Test [9] concerns Klebsiella pneumoniae L142. The experiment in a line: MIC, broth dilution test. Format: cell-based. As to conditions: Isosensitest broth, 24 h, 37° C.
In test [10] the test system is Haemophilus influenzae L 970 type b ATCC 19418. The experiment in a line: MIC, broth dilution test. Format: cell-based. The conditions noted are these: Brain Heart broth +1% Supplement C, 48 h, 37° C.
Test [11] has as its system Staph. epidermidis L147 ATCC 12228 (coagulase negative). As to conditions: Isosensitest broth, 24 h, 37° C.
Test [12] relates to Strep. mitis L796 (clinical isolate). The test is described as follows: MIC, broth dilution test. In kind it is cell-based. The conditions noted are these: Todd-Hewitt broth, 24 h, 37° C.
Test [13] deals with Neisseria gonorrhoeae L997 ISM68/126. The test is described as follows: MIC, broth dilution test. Format: cell-based. The conditions noted are these: GC base broth +1% Isovitalex, 48 h, CO2-enriched atmosphere, 37° C.
The subject of another test is Strep. pyogenes L49 C203. The experiment in a line: MIC, broth dilution test. Format: cell-based. The conditions noted are these: Todd-Hewitt broth, 24 h, 37° C.

Broadly, the ED50 is the dose that gives a 50% effect, or the effect in half of the subjects.

Take “antibiotic A 40926 aminoglucuronyl aglycon”: the “level of antimicrobial activity compared with de-acyl antibiotic A 40926 (Table I)” value in test [1] is “substantially the same level of antimicrobial activity as that reported above for de-acyl antibiotic A 40926”.
As to de-acyl antibiotic A 40926, the ED50 in the test on S. pyogenes C 203 (L 49) is given as 2.33 mg/kg. For the same substance, the M.I.C. was greater than 128 µg/mL in [2]; greater than 128 µg/mL in [3]; greater than 128 µg/mL in test [4]; 32 µg/mL in test [5]; 2 µg/mL in test [6]; 0.13 µg/mL in [7]. For the same substance, the M.I.C. is 2 µg/mL in the test on Staph. aureus L165 (Staph. aureus (10^6 cfu/ml)); 2 µg/mL with Staph. aureus L165 (Staph. aureus (30% bovine serum)); 1 µg/mL with Staph. aureus L165 (Staph. aureus L165, 37° C., about 10^4-10^5 cfu/ml); 0.25 µg/mL in test [8]; greater than 128 µg/mL in [9]; 128 µg/mL in test [10]. In addition, the M.I.C. in test [11] came out at 2 µg/mL; in test [12], 0.5 µg/mL; in test [13] it was 64 µg/mL; with Strep. pyogenes L49 C203, 0.25 µg/mL.
de-acyl antibiotic A 40926 P: the “level of antimicrobial activity compared with de-acyl antibiotic A 40926 (Table I)” value in [1] is “substantially the same level of antimicrobial activity as that reported above for de-acyl antibiotic A 40926”.
